Data set [1] has as its system B16/F1 murine melanoma cells. As to the kind of experiment: Cellular internalization and efflux. It is filed as cell-based. The arrangement: concentration or dose not given beside the values. To be noted: for Cellular efflux: activity remained inside the cells: 2 h after incubating cells in culture medium; for Activity internalized in the B16/F1 cells: 25° C. How it is done: Cellular internalization and efflux of ^99mTc-RGD-Lys-(Arg^11)CCMSH was evaluated in B16/F1 cells as previously described by Miao et al (27). After being washed once with binding media, B16/F1 cells in 24-well cell culture plates were incubated at 25° C. for 20, 40, 60, 90 and 120 min (n=4) in the presence of approximately 200,000 cpm of HPLC purified ^99mTc-RGD-Lys-(Arg^11)CCMSH. After incubation, the reaction media were aspirated and the cells were rinsed twice with 0.5 ml of ice-cold pH 7.4, 0.2% BSA/0.01 M PBS. Cellular internalization of ^99mTc-RGD-Lys-(Arg^11)CCMSH was assessed by washing the cells with acidic buffer [40 mM sodium acetate (pH 4.5) containing 0.9% NaCl and 0.2% BSA] to remove the membrane-bound radioactivity. The remaining internalized radioactivity was obtained by lysing the cells with 0.5 ml of 1 N NaOH for 5 min. Membrane-bound and internalized ^99mTc activities were counted in a gamma counter. Cellular efflux of ^99mTc-RGD-Lys-(Arg^11)CCMSH was determined by incubating B16/F1 cells with ^99mTc-RGD-Lys-(Arg^11)CCMSH for 2 h at 25° C., removing non-specific-bound radioactivity with 2×0.5 ml of ice-cold pH 7.4, 0.2% BSA/0.01 M PBS rinse, and monitoring radioactivity released into cell culture media. At time points of […], the radioactivities in media, on cell surface and in cells were separately collected and counted in a gamma counter.
Cellular internalization and efflux of ^99mTc-RGD-Arg-(Arg^11)CCMSH was evaluated in B16/F1 cells as previously described by Yang et al (17). After being washed once with binding medium, B16/F1 cells in 24-well cell culture plates were incubated at 25° C. for 20, 40, 60, 90 and 120 min (n=3) in the presence of approximately 200,000 cpm of HPLC purified 99″Tc-RGD-Arg-(Arg^11)CCMSH. After incubation, the reaction medium was aspirated and the cells were rinsed twice with 0.5 mL of ice-cold pH 7.4, 0.2% BSA/0.01 M PBS. Cellular internalization of ^99mTc-RGD-Arg-(Arg^11)CCMSH was assessed by washing the cells with acidic buffer [40 mM sodium acetate (pH 4.5) containing 0.9% NaCl and 0.2% BSA] to remove the membrane-bound radioactivity. The remaining internalized radioactivity was obtained by lysing the cells with 0.5 mL of 1 N NaOH for 5 min. Membrane-bound and internalized ^99mTc activities were counted in a gamma counter. Cellular efflux of ^99mTc-RGD-Arg-(Arg^11)CCMSH was determined by incubating B16/F1 cells with ^99mTc-RGD-Arg-(Arg^11)CCMSH for 2 h at 25° C., removing non-specific-bound radioactivity with 2×0.5 mL of ice-cold pH 7.4, 0.2% BSA/0.01 M PBS rinse, and monitoring radioactivity released into cell culture medium. At time points of 20, 40, 60, 90 and 120 min, the radioactivities on cell surface and in cells were separately collected and counted in a gamma counter.

The subject of data set [2] is B16/F1 melanoma. Put plainly: SPECT/CT imaging of melanoma. It is filed as in vivo, C57 mouse. To be noted: 2 h post-injection. How it is done:
(§1) A B16/F1 melanoma-bearing C57 mouse was injected with 10.4 MBq of ^99mTc-RGD-Lys-(Arg^11)CCMSH via the tail vein. The mouse was anesthetized with 1.5% isoflurane for small animal SPECT/CT (Nano-SPECT/CT®, Bioscan) imaging 2 h post-injection. The 9-min CT imaging was immediately followed by the SPECT imaging of whole-body. The SPECT scans of 24 projections were acquired and total acquisition time was approximately 45 min. After the SPECT imaging, the mouse was euthanized with CO2 inhalation. Reconstructed data from SPECT and CT were visualized and co-registered using InVivoScope (Bioscan, Washington D.C.).
as §1, with “6.1” for “10.4”, “^99mTc-RGD-Arg-(Arg^11)CCMSH” for “^99mTc-RGD-Lys-(Arg^11)CCMSH”, “9-min.” for “9-min”

The nature of data set [3]: Urinary metabolites by HPLC. To be noted: urine, 2 h post-injection, RP-HPLC. It is filed as in vivo, C57 mouse. How it is done:
Urinary metabolites of ^99mTc-RGD-Lys-(Arg^11)CCMSH were determined by injecting 3.7 MBq of […]-RGD-Lys-(Arg^11)CCMSH into a B16/F1 melanoma-bearing C57 mouse through the tail vein. At 2 h after dose administration, the mouse was euthanized and the urine was collected. The radioactive metabolites in the urine were analyzed by injecting aliquots of urine into HPLC. A 20-minute gradient of 16-26% acetonitrile/20 mM HCl was used for the urine analysis.
Urinary metabolites of ^99mTc-RGD-Arg-(Arg^11)CCMSH were determined by injecting 3.7 MBq of ^99mTc-RGD-Arg-(Arg^11)CCMSH into a B16/F1 melanoma-bearing C57 mouse through the tail vein. At 2 h after dose administration, the mouse was euthanized and the urine was collected. The radioactive metabolites in the urine were analyzed by injecting aliquots of urine into HPLC. A 20-minute gradient of 16-26% acetonitrile/20 mM HCl was used for the urine analysis.

Several values for one entry are separate records, joined by “and”; a condition that tells them apart may be missing. Equal values may be shown once. Positions of bridges follow the written chain, without caps; N, C: chain ends. Non-standard residues stand in square brackets, D forms with d. Residues, ends and D or L forms follow the SMILES beside them.

As for `CC(C)[C@H](NC(=O)[C@@H]1CCCN1C(=O)[C@H](CCCNC(=N)N)NC(=O)[C@H](CS)NC(=O)[C@H](Cc1c[nH]c2ccccc12)NC(=O)[C@H](CCCNC(=N)N)NC(=O)[C@@H](Cc1ccccc1)NC(=O)[C@H](Cc1c[nH]cn1)NC(=O)[C@H](CCC(=O)O)NC(=O)[C@H](CS)NC(=O)[C@H](CS)NC(=O)[C@H](CCCCN)NC(=O)[C@@H]1CC(=O)N[C@@H](CCCNC(=N)N)C(=O)NCC(=O)N[C@@H](CC(=O)O)C(=O)N[C@H](Cc2ccc(O)cc2)C(=O)N1)C(N)=O` [^99mTc-RGD-Lys-(Arg^11)CCMSH, metal not drawn] (RGD[dY]DKCCEH[dF]RWCRPV-NH2; lactam N-5), the “Cellular efflux: activity remained inside the cells” value in data set [1] was 68.57±3.77% and ~69%. For the same molecule, the “Activity internalized in the B16/F1 cells” value (shortened to “Activity internalized”) in data set [1] (2 h incubation) is reported as 85.93±1.22%. Also, the “Visualization of flank melanoma tumors by SPECT/CT” value in data set [2] was “visualized clearly”. Besides, in data set [3], the “Urinary radioactivity: remained intact” value was “Approximately 68%” and the “Urinary radioactivity: transformed to more lipophilic metabolite(s)” value is 32%.

On to `CC(C)[C@H](NC(=O)[C@@H]1CCCN1C(=O)[C@H](CCCNC(=N)N)NC(=O)[C@H](CS)NC(=O)[C@H](Cc1c[nH]c2ccccc12)NC(=O)[C@H](CCCNC(=N)N)NC(=O)[C@@H](Cc1ccccc1)NC(=O)[C@H](Cc1c[nH]cn1)NC(=O)[C@H](CCC(=O)O)NC(=O)[C@H](CS)NC(=O)[C@H](CS)NC(=O)[C@H](CCCNC(=N)N)NC(=O)[C@@H]1CC(=O)N[C@@H](CCCNC(=N)N)C(=O)NCC(=O)N[C@@H](CC(=O)O)C(=O)N[C@H](Cc2ccc(O)cc2)C(=O)N1)C(N)=O` [^99mTc-RGD-Arg-(Arg^11)CCMSH, metal not drawn] (RGD[dY]DRCCEH[dF]RWCRPV-NH2; lactam N-5), for which the “Activity internalized” value in data set [1] (20 min post incubation) is given as 62.35±4.08%. The “Cellular efflux: activity remained inside the cells” value in data set [1] was determined as 58.99±2.03%. Also, in data set [1] (2 h incubation), the “Activity internalized” value is 81.36±0.96%. Further, in data set [2], the “Visualization of flank melanoma tumors by SPECT/CT” value is reported as “visualized clearly”. In data set [3], the “Urinary radioactivity: remained intact” value is “Approximately 73%” and the “Urinary radioactivity: transformed to more lipophilic metabolite(s)” value amounted to 27%.

The values are drawn from patent US9005575B2, “Arg-Gly-Asp-conjugated alpha-melanocyte stimulating hormone hybrid peptide for use in diagnosing and treating melanoma, including metastatic melanoma and methods related to same” (STC.UNM, priority 2009, dated 2015).
